Values after ≈ are worked out from the molar mass of the structure shown. Read-outs that look alike come from different tables or passages of the source.
Columns and labels:
Assay in all cases: microbe, parasite or virus in culture
Format in all cases: cell-based, Mycobacterium tuberculosis
[1] = tested on: isoniazid resistant strain INH-R1
[2] = tested on: isoniazid resistant strain INH-R2
[3] = tested on: rifampicin resistant strain RIF-R1
[4] = tested on: rifampicin resistant strain RIF-R2
[5] = tested on: fluoroquinolone resistant strain FQ-R1
[6] = Mycobacterium tuberculosis, INHR1
[7] = Mycobacterium tuberculosis, INHR2
[8] = Mycobacterium tuberculosis, RIFR1, read-out: IC50
[9] = Mycobacterium tuberculosis, RIFR1, read-out: IC90
[10] = Mycobacterium tuberculosis, RIFR1, read-out: MIC
[11] = Mycobacterium tuberculosis, RIFR2, read-out: IC50
[12] = Mycobacterium tuberculosis, RIFR2, read-out: IC90
[13] = Mycobacterium tuberculosis, RIFR2, read-out: MIC
[14] = Mycobacterium tuberculosis, FQR1, read-out: IC50
[15] = Mycobacterium tuberculosis, FQR1, read-out: IC90
[16] = Mycobacterium tuberculosis, FQR1, read-out: MIC
[17] = Mycobacterium tuberculosis, RIFR1
[18] = Mycobacterium tuberculosis, RIFR2
[19] = Mycobacterium tuberculosis, FQR1

With “4-[3-(4-Chlorophenyl)-1-(ethoxycarbonyl)indolizine-7-yl)-1-(2-(4-methoxyphenyl)-2-oxoethyl)pyridine-1-ium bromide [Compound 6c]” the MIC ([1]; INH-R1) was 14 µM, the IC50 ([1]; INH-R1, read-out: IC50) was 6.9 µM and the IC90 ([1]; INH-R1, read-out: IC90) was 14 µM. The MIC ([2]; INH-R2) was 16 µM, the IC50 ([2]; INH-R2, read-out: IC50) was 6.2 µM and the IC90 ([2]; INH-R2, read-out: IC90) was 19 µM. The IC50 ([3]; read-out: IC50) was 6.5 µM, the IC90 ([3]; read-out: IC90) was 10 µM and the MIC ([3]; read-out: MIC) was 10 µM. The IC90 ([4]; read-out: IC90) was 12 µM, the MIC ([4]; read-out: MIC) was 13 µM and the IC50 ([5]; read-out: IC50) was 8 µM. For the same compound, the IC90 ([5]; read-out: IC90) was 16 µM and the MIC ([5]; read-out: MIC) was 16 µM.

Work on `CCOC(=O)c1cc(C(=O)c2ccccc2)n2ccc(-c3cc[n+](CC(=O)c4ccc(C)cc4)cc3)cc12.[Br-]` [Compound 6a, 4-(3-Benzoyl-1-(ethoxycarbonyl)indolizine-7-yl)-1-(2-oxo-2-(p-tolyl)ethyl)pyridin-1-ium bromide] yielded an IC50 [1, 6] of 13 µM, an IC90 [1, 6] of 35 µM and an MIC [1, 6] of 33 µM. For the same compound, the IC50 [2, 7] was 12 µM, the IC90 [2, 7] was 22 µM and the MIC [2, 7] was 19 µM. The IC50 [3, 8] was 8.3 µM, the IC90 [3, 9] was 13 µM and the MIC [3, 10] was 14 µM. It also gave an IC50 [4, 11] of 12 µM, an IC90 [4, 12] of 29 µM and an MIC [4, 13] of 31 µM. The IC50 [5, 14] was 15 µM, the IC90 [5, 15] was 32 µM and the MIC [5, 16] was 31 µM.

`CCOC(=O)c1cc(C(=O)c2ccc(Cl)cc2)n2ccc(-c3cc[n+](CC(=O)c4cccc(OC)c4)cc3)cc12` [Compound 6d, 4-(3-(4-Chlorobenzoyl)-1-(ethoxycarbonyl)indolizine-7-yl)-1-(2-(3-methoxyphenyl)-2-oxoethyl)pyridin-1-ium] was tested, and the IC50 [1, 6] was 14 µM, the IC90 [1, 6] was 36 µM and the MIC [1, 6] was 28 µM. For the same compound, the IC50 [2, 7] was 15 µM, the IC90 [2, 7] was 35 µM and the MIC [2, 7] was 30 µM. It also gave an IC50 [3, 8] of 12 µM, an IC90 [3, 9] of 24 µM and an MIC [3, 10] of 22 µM. For the same compound, the IC50 [4, 11] was 12 µM, the IC90 [4, 12] was 14 µM and the MIC [4, 13] was 16 µM. The IC50 [5, 14] was 21 µM, the IC90 [5, 15] was 32 µM and the MIC [5, 16] was 32 µM.

Compound `CCOC(=O)c1cc(C(=O)c2ccc(Br)cc2)n2ccc(-c3cc[n+](CC(=O)c4cccc(OC)c4)cc3)cc12` [Compound 6h, 4-(3-(4-Bromobenzoyl)-1-(ethoxycarbonyl)indolizine-7-yl)-1-(2-(3-methoxyphenyl)-2-oxoethyl)pyridin-1-ium] has an IC50 [1, 6] of 18 µM, an IC90 [1, 6] of over 50 µM and an MIC [1, 6] of over 50 µM. The IC50 [2, 7] was 16 µM, the IC90 [2, 7] was 43 µM and the MIC [2, 7] was over 50 µM. It also gave an IC50 [3, 8] of 13 µM, an IC90 [3, 9] of 26 µM and an MIC [3, 10] of 24 µM. The IC50 [4, 11] was 15 µM, the IC90 [4, 12] was over 50 µM and the MIC [4, 13] was over 50 µM. The IC50 [5, 14] was 26 µM, the IC90 [5, 15] was over 50 µM and the MIC [5, 16] was over 50 µM.

Work on `CCOC(=O)c1cc(C(=O)c2ccc(Cl)cc2)n2ccc(-c3cc[n+](CC(=O)c4ccc(C)cc4)cc3)cc12` [Compound 6i] yielded an IC50 [1, 6] of 13 µM, an IC90 [1, 6] of 23 µM and an MIC [1, 6] of 22 µM. For the same compound, the IC50 [2, 7] was 9.8 µM, the IC90 [2, 7] was 20 µM and the MIC [2, 7] was 20 µM. It also gave an IC50 [3, 8] of 7.7 µM, an IC90 [3, 9] of 15 µM and an MIC [3, 10] of 15 µM. It also gave an IC50 [4, 11] of 12 µM, an IC90 [4, 12] of 22 µM and an MIC [4, 13] of 22 µM. The IC50 [5, 14] was 11 µM, the IC90 [5, 15] was 28 µM and the MIC [5, 16] was 27 µM.

`NNC(=O)c1ccncc1` [Isoniazid, reference compound] was tested, and the IC50 [1, 6] was over 200 µM, the IC90 [1, 6] was over 200 µM and the MIC [1, 6] was over 200 µM. The IC50 [2, 7] was over 200 µM, the IC90 [2, 7] was over 200 µM and the MIC [2, 7] was over 200 µM. The IC50 [3, 8] was 0.063 µM, the IC90 [3, 9] was 0.094 µM and the MIC [3, 10] was 0.092 µM (≈ 0.0126 µg/mL). The IC50 [4, 11] was 0.27 µM, the IC90 [4, 12] was 0.3 µM and the MIC [4, 13] was 0.31 µM (≈ 0.0425 µg/mL). For the same compound, the IC50 [5, 14] was 0.13 µM, the IC90 [5, 15] was 0.15 µM and the MIC [5, 16] was 0.16 µM (≈ 0.0219 µg/mL).

In the case of `C[C@H]1COc2c(N3CCN(C)CC3)c(F)cc3c(=O)c(C(=O)O)cn1c23` [Levofloxacin, levofloxacin, reference compound], the IC50 [1, 6] is reported as 1.9 µM, the IC90 [1, 6] is reported as 3 µM and the MIC [1, 6] is reported as 2.9 µM (≈ 1.05 µg/mL). The IC50 [2, 7] was 2.4 µM, the IC90 [2, 7] was 4.3 µM and the MIC [2, 7] was 3.5 µM (≈ 1.26 µg/mL). It also gave an IC50 [3, 8] of 1.6 µM, an IC90 [3, 9] of 2.6 µM and an MIC [3, 10] of 2.7 µM (≈ 0.976 µg/mL). It also gave an IC50 [4, 11] of 1.7 µM, an IC90 [4, 12] of 3 µM and an MIC [4, 13] of 2.9 µM (≈ 1.05 µg/mL). It also gave an IC50 [5, 14] of 49 µM, an IC90 [5, 15] of 110 µM and an MIC [5, 16] of 110 µM (≈ 39.8 µg/mL).

Compound `CO[C@H]1/C=C/O[C@@]2(C)Oc3c(C)c(O)c4c(O)c(c(/C=N/N5CCN(C)CC5)c(O)c4c3C2=O)NC(=O)/C(C)=C\C=C\[C@H](C)[C@H](O)[C@@H](C)[C@@H](O)[C@@H](C)[C@H](OC(C)=O)[C@@H]1C` [Rifampicin, reference compound] has an IC50 [1, 6] of 0.012 µM, an IC90 [1, 6] of 0.031 µM and an MIC [1, 6] of 0.022 µM (≈ 0.0181 µg/mL). The IC50 [2, 7] was 0.007 µM, the IC90 [2, 7] was 0.016 µM and the MIC [2, 7] was 0.013 µM (≈ 0.0107 µg/mL). It also gave an IC50 [3, 17] of 1.1 µM, an IC90 [3, 17] of 3.8 µM and an MIC [3, 17] of 5.3 µM (≈ 4.36 µg/mL). It also gave an IC50 [4, 18] of over 50 µM, an IC90 [4, 18] of over 50 µM and an MIC [4, 18] of over 50 µM. The IC50 [5, 19] was 0.013 µM, the IC90 [5, 19] was 0.033 µM and the MIC [5, 19] was 0.024 µM (≈ 0.0198 µg/mL).

Reference: article PMC6021032, “Antimycobacterial activity of nitrogen heterocycles derivatives: 7-(pyridine-4-yl)-indolizine derivatives. Part VII^8–12” (Journal of Enzyme Inhibition and Medicinal Chemistry, 2017)
